Experimental data from publication PMC3517777, “Phase I study of TP300 in patients with advanced solid tumors with pharmacokinetic, pharmacogenetic and pharmacodynamic analyses” (BMC Cancer, 2012).

Assays:
neutrophil count = test: Exposure versus fall in nadir neutrophil count, sigmoid Emax model; assay type: in vivo, human; conditions: 1-nadir/pre-observation neutrophils in cycle 1 vs total AUC of TP3076 plus TP3011, sigmoid Emax fit
Procedure: Pharmacokinetic parameters derived from plasma concentration-time data of TP3076 or TP3011 by non-compartmental methods using WinNonlin (version 5.1; Pharsight Corp), included maximal plasma concentration (Cmax) and time of Cmax (Tmax), apparent plasma elimination half-life (t1/2), and the area under the curve (AUC). The urinary excretion ratio (fe) of TP3076 and TP3011 was calculated from the urinary concentration and volume up to 48 hours after administration, and the administration dose. The linearity of Cmax and AUC was determined with linear regression, analysis of variance and power model analysis. The sum of the AUCs of TP3076 and TP3011 was plotted against percentage (%) fall in nadir neutrophil count to explore the relationship between exposure and myelosuppression as a measure of anti-proliferative effect and a sigmoid Emax model fitted to the data:
where γ is the Hill equation constant and EAUC50 is the AUC associated with 50% of the maximal effect.

advanced solid tumors = test: Antitumour activity (RECIST) in Phase I patients; assay type: in vivo, human
Procedure: The MTD was the dose level below that at which ≥ 2 out of 3–6 patients experienced a DLT. Radiologic assessment of disease was performed every 2 cycles. Patients could remain on treatment if there was evidence of clinical benefit but were withdrawn from the study upon clinical or radiologic progression, unacceptable toxicity or withdrawal of consent.

[1] = system: tumours over-expressing the breast cancer resistance protein [BCRP]; design: method as in PMID 19495753; conditions: unlike SN38; cited from earlier work

CCCCCN1C=Nc2cccc3nc4c(c1c23)Cn1c-4cc2c(c1=O)COC(=O)[C@@]2(CC)OC(=O)CN(C)C(=O)CN [TP300, glycine,glycyl-N-methyl-,(9S)-9-ethyl-9,10,13,15-tetrahydro-10,13-dioxo-1-pentyl-1H,12H-pyrano[3'',4'':6′,7′]indolizino[2′,1′:5,6]pyrido[4,3,2-de]quinazolin-9-yl ester, hydro-chloride]
EAUC50 (AUC associated with 50% of the maximal effect) (neutrophil count): 1.31 | γ (Hill equation constant) (neutrophil count): 0.862 | patients with stable disease as best response (advanced solid tumors; 1 each at 4, 8 and 12 mg/m^2 and 3 at 10 mg/m^2): six | objective response as determined by RECIST (advanced solid tumors; 32 patients, 1-12 mg/m^2): no complete or partial responses | duration of stable disease (advanced solid tumors; six patients with stable disease): 1.5-5 months | activity in tumours over-expressing BCRP [1]: appears active
